{
  "source": "patent US20170114049A1",
  "about": "“2,5-DISUBSTITUTED CYCLOPENTANE CARBOXYLIC ACIDS FOR THE TREATMENT OF RESPIRATORY TRACT DISEASES” (BAYER PHARMA AKTIENGESELLSCHAFT, priority 2014, published 2017)",
  "key": {"[1]": {"system": "rat hepatocytes", "assay": "Hepatocyte assay for determination of metabolic stability", "settings": "after incubation with rat hepatocytes", "procedure": "Seven samples from the incubation solution are taken for the LC-MS analysis within a fixed time pattern, in order to determine the half-life (i.e. the degradation) of the particular compound. This half life is used to calculate various “Clearance” parameters (CL) and “Fmax” values (see below).\nThe CL and Fmax values are a measure of the phase 1 and phase 2 metabolism of the compounds in the hepatocytes. In order to minimize the influence of the organic solvent on the enzymes in the incubation batches, the concentration thereof is generally limited to 1% (acetonitrile) or 0.1% (DMSO).\nFor all species and breeds, a hepatocyte cell count in the liver of 1.1*10^8 cells/g of liver is expected.\nThe parameters calculated and the meanings thereof are: • Fmax well-stirred [%] maximum possible bioavailability after oral administration • Calculation: (1-CLblood well-stirred/QH)*100 • CLblood well-stirred [L/(h*kg)] calculated blood clearance (well-stirred model) • Calculation: (QH*CLintrinsic)/(QH+CL′intrinsic) • CL′intrinsic[ml/(min*kg)] maximum ability of the liver (of the hepatocytes) to metabolize a compound (assuming that the liver blood flow is not rate-limiting) • Calculation: CLintrinsic, apparent* species-specific hepatocyte count [1.1* 10^8/g liver]*species-specific liver weight [g/kg] • CL′intrinsic, apparent[ml/(min*mg)] normalizes the elimination constant by dividing it by the hepatocyte cell count x used (x*10^6/ml) • Calculation: kcl[1/min]/(cell count [x*10^6]/incubation volume [ml]) • (QH=species-specific liver blood flow)."}, "[2]": {"molecular_target": "T1, human macrophage elastase (HME/hMMP-12) (Homo sapiens, UniProt P39900)", "T1 construct": "0.5 nM HME; purchased R&D Systems 917-MP", "T1 sequence (P39900 106-470)": "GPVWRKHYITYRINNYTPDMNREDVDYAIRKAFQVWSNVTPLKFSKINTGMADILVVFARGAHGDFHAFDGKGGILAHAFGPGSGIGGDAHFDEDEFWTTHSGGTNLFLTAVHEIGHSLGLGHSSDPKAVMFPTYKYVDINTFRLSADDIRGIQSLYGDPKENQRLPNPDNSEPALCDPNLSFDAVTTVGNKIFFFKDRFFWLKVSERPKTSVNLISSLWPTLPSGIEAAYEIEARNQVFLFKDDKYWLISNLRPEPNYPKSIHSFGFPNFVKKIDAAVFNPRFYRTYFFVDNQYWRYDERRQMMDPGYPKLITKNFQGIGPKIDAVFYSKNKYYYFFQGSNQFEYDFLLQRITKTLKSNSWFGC", "assay": "In vitro HME inhibition test (standard or high-sensitivity)", "type": "biochemical", "settings": "standard or high-sensitivity HME inhibition test; read-out: HME/hMMP-12 IC50", "description": "The potency of the compounds according to the invention with respect to HME (MMP-12) is determined in an in vitro inhibition test. The HME-mediated amidolytic cleavage of a suitable peptide substrate leads to an increase in fluorescent light therein. The signal intensity of the fluorescent light is directly proportional to the enzyme activity. The active concentration of a test compound at which half the enzyme is inhibited (50% signal intensity of the fluorescent light) is reported as the IC50 value.\nIn a 384 hole microtiter plate, in a total test volume of 41 μl, the test buffer (0.1 M HEPES pH 7.4, 0.15 M NaCl, 0.03 M CaCl2, 0.004 mM ZnCl2, 0.02 M EDTA, 0.005% Brij®), the enzyme (0.5 nM HME; from R&D Systems, 917-MP, autocatalytic activation according to the manufacturer's instructions) and the intramolecularly quenched substrate [5 μM Mca-Pro-Leu-Gly-Leu-Glu-Glu-Ala-Dap(Dnp)-NH2; Bachem, M-2670] are incubated in the absence and presence of the test substance (as a solution in DMSO) at 37° C. for two hours. The fluorescence intensity of the test mixtures is measured (excitation […], emission 393 nm). The IC50 values are ascertained by plotting the fluorescent light intensity against the active ingredient concentration.\nIn this case, an enzyme concentration ten times lower is used (final concentration, for example, 0.05 nM) in order to achieve an elevated test sensitivity. The incubation period chosen for the test is correspondingly longer (for example 16 hours)."}, "[3]": {"assay": "Determination of solubility in PBS buffer pH 6.5", "settings": "PBS buffer pH 6.5, 1% DMSO, room temperature; for solubility at 24 h: PBS buffer, pH 6.5, aqueous buffer, kinetic from dmso stock; for Solubility: 24 h", "procedure": "The test substance is dissolved in DMSO. An aliquot is taken from this solution and introduced into PBS buffer pH 6.5 (DMSO content: 1%). This solution/suspension is agitated at room temperature for 24 h. After ultracentrifugation at 114000 g for 30 min, the supernatant is removed, diluted with acetonitrile/water 8:2 and analysed by LC-MSMS. Quantification is effected by means of a five-point calibration curve of the test compound in DMSO."}},
  "data": [
    {"molecule": "Cc1ccc2nnn(C[C@H]3CC[C@@H](C(=O)c4ccc(OCCC5CCOCC5)cc4)[C@@H]3C(=O)O)c(=O)c2c1", "note": "(racemic) [Example 20, (+)-(1RS,2SR,5RS)-2-[(6-Methyl-4-oxo-1,2,3-benzotriazin-3(4H)-yl)methyl]-5-{4-[2-(tetrahydro-2H-pyran-4-yl)ethoxy]benzoyl}cyclopentanecarboxylic acid]", "values": [
      {"measurement": "CLblood (calculated blood clearance, well-stirred)", "setting": "[1]", "result": 0.77, "unit": "L/h/kg"},
      {"measurement": "Fmax (maximum possible bioavailability after oral administration, well-stirred)", "setting": "[1]", "result": 81.8, "unit": "%"}
    ]},
    {"molecule": "Cc1ccc2nnn(C[C@H]3CC[C@@H](C(=O)c4ccc(OCCC5CCOCC5)cc4)[C@@H]3C(=O)O)c(=O)c2c1", "note": "(single isomer, unassigned) [Example 21, (−)-(1RS,2SR,5RS)-2-[(6-Methyl-4-oxo-1,2,3-benzotriazin-3(4H)-yl)methyl]-5-{4-[2-(tetrahydro-2H-pyran-4-yl)ethoxy]benzoyl}cyclopentanecarboxylic acid]", "values": [
      {"measurement": "IC50", "setting": "[2]", "result": 78, "unit": "nM"}
    ]},
    {"molecule": "Cc1ccc2nnn(C[C@H]3CC[C@@H](C(=O)c4ccc(OCC5CCOCC5)cc4)[C@@H]3C(=O)O)c(=O)c2c1", "note": "(single isomer, unassigned) [Example 17, (+)-(1RS,2SR,5RS)-2-[(6-Methyl-4-oxo-1,2,3-benzotriazin-3(4H)-yl)methyl]-5-[4-(tetrahydro-2H-pyran-4-ylmethoxy)benzoyl]cyclopentanecarboxylic acid]", "values": [
      {"measurement": "IC50", "setting": "[2]", "result": 0.03, "unit": "nM"},
      {"measurement": "solubility at 24 h", "setting": "[3]", "result": 0.25, "unit": "mg/mL"}
    ]},
    {"molecule": "O=C(O)[C@H]1[C@H](Cn2nnc3ccc(C(F)(F)F)cc3c2=O)CC[C@@H]1C(=O)c1ccc(SCC2CCOCC2)cc1", "note": "(racemic) [Example 13, (+/−)-(1RS,2SR,5RS)-2-{[4-Oxo-6-(trifluoromethyl)-1,2,3-benzotriazin-3 (4H)-yl]methyl}-5-{4-[(tetrahydro-2H-pyran-4-ylmethyl)sulphanyl]benzoyl}cyclopentanecarboxylic acid]", "values": [
      {"measurement": "IC50", "setting": "[2]", "result": 0.48, "unit": "nM"}
    ]},
    {"molecule": "O=C(O)[C@@H]1[C@@H](Cn2nnc3ccccc3c2=O)CC[C@H]1C(=O)c1ccc(OCCC2CCOCC2)cc1", "note": "(stereo in doubt) [Example 6, (−)-(1RS,2SR,5RS)-2-[(4-Oxo-1,2,3-benzotriazin-3(4H)-yl)methyl]-5-{4-[2-(tetrahydro-2H-pyran-4-yl)ethoxy]benzoyl}cyclopentanecarboxylic acid]", "values": [
      {"measurement": "IC50", "setting": "[2]", "result": 80, "unit": "nM"},
      {"measurement": "Solubility", "setting": "[3]", "result": 0.3549, "unit": "mg/mL"}
    ]},
    {"molecule": "Cc1ccc2nnn(C[C@H]3CC[C@@H](C(=O)c4ccc(OCC5CCOCC5)cc4)[C@@H]3C(=O)O)c(=O)c2c1", "note": "(racemic) [Example 18, (−)-(1RS,2SR,5RS)-2-[(6-Methyl-4-oxo-1,2,3-benzotriazin-3(4H)-yl)methyl]-5-[4-(tetrahydro-2H-pyran-4-ylmethoxy)benzoyl]cyclopentanecarboxylic acid]", "values": [
      {"measurement": "Solubility", "setting": "[3]", "result": 0.33, "unit": "mg/mL"}
    ]},
    {"molecule": "Cc1ccc2nnn(C[C@@H]3CC[C@H](C(=O)c4ccc(OCC5CCOCC5)cc4)[C@H]3C(=O)O)c(=O)c2c1", "note": "(racemic) [Example 16, (+/−)-(1RS,2SR,5RS)-2-[(6-Methyl-4-oxo-1,2,3-benzotriazin-3(4H)-yl)methyl]-5-[4-(tetrahydro-2H-pyran-4-ylmethoxy)benzoyl]cyclopentanecarboxylic acid]", "values": [
      {"measurement": "IC50", "setting": "[2]", "result": 0.17, "unit": "nM"}
    ]},
    {"molecule": "O=C(O)[C@@H]1[C@@H](Cn2nnc3ccc(C(F)(F)F)cc3c2=O)CC[C@H]1C(=O)c1ccc(SCC2CCOCC2)cc1", "note": "(single isomer, unassigned) [Example 14, (−)-(1RS,2SR,5RS)-2-{[4-Oxo-6-(trifluoromethyl)-1,2,3-benzotriazin-3(4H)-yl]methyl}-5-{4-[(tetrahydro-2H-pyran-4-ylmethyl)sulphanyl]benzoyl}cyclopentanecarboxylic acid]", "values": [
      {"measurement": "IC50", "setting": "[2]", "result": 10, "unit": "nM"},
      {"measurement": "solubility at 24 h", "setting": "[3]", "result": 0.08, "unit": "mg/mL"}
    ]},
    {"molecule": "O=C(O)[C@@H]1[C@@H](Cn2nnc3ccc(C(F)(F)F)cc3c2=O)CC[C@H]1C(=O)c1ccc(SCC2CCOCC2)cc1", "note": "(racemic) [Example 15, (+)-(1RS,2SR,5RS)-2-{[4-Oxo-6-(trifluoromethyl)-1,2,3-benzotriazin-3(4H)-yl]methyl}-5-{4-[(tetrahydro-2H-pyran-4-ylmethyl)sulphanyl]benzoyl}cyclopentanecarboxylic acid]", "values": [
      {"measurement": "CLblood (calculated blood clearance, well-stirred)", "setting": "[1]", "result": 0.16, "unit": "L/h/kg"},
      {"measurement": "Fmax (maximum possible bioavailability after oral administration, well-stirred)", "setting": "[1]", "result": 96.1, "unit": "%"},
      {"measurement": "Solubility", "setting": "[3]", "result": 0.1, "unit": "mg/mL"}
    ]},
    {"molecule": "O=C(O)[C@@H]1[C@@H](Cn2nnc3ccc(C(F)(F)F)cc3c2=O)CC[C@H]1C(=O)c1ccc(OCCC2CCOCC2)cc1", "note": "(racemic) [Example 11, (+)-(1RS,2SR,5RS)-2-{[4-Oxo-6-(trifluoromethyl)-1,2,3-benzotriazin-3(4H)-yl]methyl}-5-{4-[2-(tetrahydro-2H-pyran-4-yl)ethoxy]benzoyl}cyclopentanecarboxylic acid]", "values": [
      {"measurement": "CLblood (calculated blood clearance, well-stirred)", "setting": "[1]", "result": 0.3, "unit": "L/h/kg"},
      {"measurement": "Fmax (maximum possible bioavailability after oral administration, well-stirred)", "setting": "[1]", "result": 92.9, "unit": "%"}
    ]},
    {"molecule": "(−)-(1RS,2SR,5RS)-2-{[4-Oxo-6-(trifluoromethyl)-1,2,3-benzotriazin-3(4H)-yl]methyl}-5-[4-(tetra-hydro-2H-pyran-4-ylmethoxy)benzoyl]cyclopentanecarboxylic acid [Example 9]", "values": [
      {"measurement": "IC50", "setting": "[2]", "result": 42, "unit": "nM"}
    ]},
    {"molecule": "Cc1ccc2nnn(C[C@H]3CC[C@@H](C(=O)c4ccc(OCC5CCOCC5)cc4)[C@@H]3C(=O)O)c(=O)c2c1", "note": "(single isomer, unassigned) [Example 18, (−)-(1RS,2SR,5RS)-2-[(6-Methyl-4-oxo-1,2,3-benzotriazin-3(4H)-yl)methyl]-5-[4-(tetrahydro-2H-pyran-4-ylmethoxy)benzoyl]cyclopentanecarboxylic acid]", "values": [
      {"measurement": "IC50", "setting": "[2]", "result": 3.3, "unit": "nM"}
    ]},
    {"molecule": "O=C(O)[C@@H]1[C@@H](Cn2nnc3ccccc3c2=O)CC[C@H]1C(=O)c1ccc(OCCC2CCOCC2)cc1", "note": "(racemic) [Example 5, (+)-(1RS,2SR,5RS)-2-[(4-Oxo-1,2,3-benzotriazin-3(4H)-yl)methyl]-5-{4-[2-(tetrahydro-2H-pyran-4-yl)ethoxy]benzoyl}cyclopentanecarboxylic acid]", "values": [
      {"measurement": "CLblood (calculated blood clearance, well-stirred)", "setting": "[1]", "result": 0.87, "unit": "L/h/kg"},
      {"measurement": "Fmax (maximum possible bioavailability after oral administration, well-stirred)", "setting": "[1]", "result": 79.2, "unit": "%"}
    ]},
    {"molecule": "O=C(O)[C@@H]1[C@@H](Cn2nnc3ccc(C(F)(F)F)cc3c2=O)CC[C@H]1C(=O)c1ccc(OCCC2CCOCC2)cc1", "note": "(stereo in doubt) [Example 12, (−)-(1RS,2SR,5RS)-2-{[4-Oxo-6-(trifluoromethyl)-1,2,3-benzotriazin-3(4H)-yl]methyl}-5-{4-[2-(tetrahydro-2H-pyran-4-yl)ethoxy]benzoyl}cyclopentanecarboxylic acid]", "values": [
      {"measurement": "IC50", "setting": "[2]", "result": 90, "unit": "nM"},
      {"measurement": "Solubility", "setting": "[3]", "result": 0.24, "unit": "mg/mL"}
    ]}
  ]
}
